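How tested: cells in 96-well plates exposed to compound for 48 hours at five concentrations. GI50 is the concentration that inhibits growth by half.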 Active and inactive are the calls of the source. Rule as the data show it: active = GI50 up to about 1.1 µM and inactive = higher.
Columns and labels:
Assay in all cases: DTP human tumour cell line panel, 48 h
NCI-H226 = system: NCI-H226
A498 = system: A498
SK-MEL-28 = system: SK-MEL-28
786-0 = system: 786-0
SK-OV-3 = system: SK-OV-3
HT-29 = system: HT-29
SN12C = system: SN12C
CCRF-CEM = system: CCRF-CEM
HL-60 = system: HL-60
SF-295 = system: SF-295
SK-MEL-5 = system: SK-MEL-5
KM12 = system: KM12
SW-620 = system: SW-620
MDA-N = system: MDA-N
DU-145 = system: DU-145
NCI-H460 = system: NCI-H460
OVCAR-8 = system: OVCAR-8
HCC 2998 = system: HCC 2998
SR = system: SR

Structure (SMILES) | GI50 (NCI-H226) | GI50 (A498) | GI50 (SK-MEL-28) | GI50 (786-0) | GI50 (SK-OV-3) | GI50 (HT-29) | GI50 (SN12C) | GI50 (CCRF-CEM) | GI50 (HL-60) | GI50 (SF-295) | GI50 (SK-MEL-5) | GI50 (KM12) | GI50 (SW-620) | GI50 (MDA-N) | GI50 (DU-145) | GI50 (NCI-H460) | GI50 (OVCAR-8) | GI50 (HCC 2998) | GI50 (SR)
O=C(O)c1cncc(C(=O)O)c1 | > 100 µM (inactive) | > 100 µM (inactive) | > 100 µM (inactive) | > 100 µM (inactive) | > 100 µM (inactive) | > 100 µM (inactive) | > 100 µM (inactive) | > 100 µM (inactive) | > 100 µM (inactive) | > 100 µM (inactive) | > 100 µM (inactive) | > 100 µM (inactive) | > 100 µM (inactive) | > 100 µM (inactive) | > 100 µM (inactive) | > 100 µM (inactive) | > 100 µM (inactive) |  | 
O=C1c2cc(Br)ccc2-c2ccc3c4ccc5c6c(ccc(c7ccc1c2c73)c64)C(=O)c1cc(Br)ccc1-5 | > 100 µM (inactive) | > 100 µM (inactive) | > 100 µM (inactive) | > 100 µM (inactive) | > 100 µM (inactive) | > 100 µM (inactive) | > 100 µM (inactive) | 0.787 µM (active) | 25.8 µM (inactive) |  | > 100 µM (inactive) | > 100 µM (inactive) | > 100 µM (inactive) |  | > 100 µM (inactive) | > 100 µM (inactive) | > 100 µM (inactive) | > 100 µM (inactive) | 2.28 µM (inactive)
CCCCC[C@@H]1CCCC2NC(CCCCCO[Si](c3ccccc3)(c3ccccc3)C(C)(C)C)CCC21 (stereo partly drawn) | 18.7 µM (inactive) | 17.3 µM (inactive) | 17.1 µM (inactive) | 18.1 µM (inactive) | 21.8 µM (inactive) | 4.28 µM (inactive) | 14.7 µM (inactive) | 7.82 µM (inactive) | 8.71 µM (inactive) | 16.9 µM (inactive) | 18.4 µM (inactive) | 12.5 µM (inactive) | 14.6 µM (inactive) |  |  | 16.2 µM (inactive) | 17.1 µM (inactive) | 11.2 µM (inactive) | 
COc1cc2cc(C(=O)N3CC(CCl)c4ccc([N+](=O)[O-])cc43)[nH]c2c(OC)c1OC (stereo not drawn) |  | > 100 µM (inactive) | > 100 µM (inactive) | > 100 µM (inactive) |  | 17.4 µM (inactive) | > 100 µM (inactive) | > 100 µM (inactive) | > 100 µM (inactive) | > 100 µM (inactive) | > 100 µM (inactive) | > 100 µM (inactive) | > 100 µM (inactive) |  | > 100 µM (inactive) |  | > 100 µM (inactive) | > 100 µM (inactive) | 
CC(O)C1OC(n2ccc(=O)[nH]c2=O)CC1n1cncn1 (stereo not drawn) | 11.8 µM (inactive) | > 100 µM (inactive) | > 100 µM (inactive) | > 100 µM (inactive) | > 100 µM (inactive) | > 100 µM (inactive) | > 100 µM (inactive) | > 100 µM (inactive) | > 100 µM (inactive) | > 100 µM (inactive) | > 100 µM (inactive) | > 100 µM (inactive) | > 100 µM (inactive) |  |  | > 100 µM (inactive) | > 100 µM (inactive) | > 100 µM (inactive) | > 100 µM (inactive)
COc1ccc(C(Cc2ccccc2)C2NC(=S)NC2=O)cc1 (stereo not drawn) | > 25 µM (inactive) | > 25 µM (inactive) | > 25 µM (inactive) | > 25 µM (inactive) | > 25 µM (inactive) | > 25 µM (inactive) | > 25 µM (inactive) | > 25 µM (inactive) | > 25 µM (inactive) | > 25 µM (inactive) | > 25 µM (inactive) | > 25 µM (inactive) | > 25 µM (inactive) |  | > 25 µM (inactive) | > 25 µM (inactive) | > 25 µM (inactive) |  | 9.27 µM (inactive)

From ChEMBL document CHEMBL1201862, “PubChem BioAssay data set” (2004)
